PubChem BioAssay (NCI)
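96-well plates; 48 h exposure; 5 concentrations. Endpoints by linear interpolation between flanking doses. Not reached: highest tested concentration assigned. GI50: concentration for 50% inhibition of growth. Definition used: TGI = concentration required for complete inhibition of growth.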

What was measured:
Assay in all cases: inhibition of tumour cell growth, NCI panel, 48 h
786-0 renal = tested on: 786-0 renal
A498 renal = tested on: A498 renal
A549 NSCLC = tested on: A549 NSCLC
ACHN renal = tested on: ACHN renal
BT-549 breast = tested on: BT-549 breast
CAKI-1 renal = tested on: CAKI-1 renal
CCRF-CEM leukemia = tested on: CCRF-CEM leukemia
COLO 205 colon = tested on: COLO 205 colon
DU-145 prostate = tested on: DU-145 prostate
EKVX NSCLC = tested on: EKVX NSCLC
HCC-2998 colon = tested on: HCC-2998 colon
HCT-116 colon = tested on: HCT-116 colon
HCT-15 colon = tested on: HCT-15 colon
HL-60(TB) leukemia = tested on: HL-60(TB) leukemia
HOP-62 NSCLC = tested on: HOP-62 NSCLC
HOP-92 NSCLC = tested on: HOP-92 NSCLC
HS 578T breast = tested on: HS 578T breast
HT29 colon = tested on: HT29 colon
IGROV1 ovarian = tested on: IGROV1 ovarian
K-562 leukemia = tested on: K-562 leukemia
KM12 colon = tested on: KM12 colon
M14 melanoma = tested on: M14 melanoma
MALME-3M melanoma = tested on: MALME-3M melanoma
MCF7 breast = tested on: MCF7 breast
MDA-MB-231 breast = tested on: MDA-MB-231 breast
MDA-MB-435 = tested on: MDA-MB-435
MOLT-4 leukemia = tested on: MOLT-4 leukemia
NCI-H226 lung = tested on: NCI-H226 lung
NCI-H23 lung = tested on: NCI-H23 lung
NCI-H460 lung = tested on: NCI-H460 lung
NCI-H522 lung = tested on: NCI-H522 lung
NCI/ADR-RES ovarian = tested on: NCI/ADR-RES ovarian
OVCAR-4 ovarian = tested on: OVCAR-4 ovarian
OVCAR-5 ovarian = tested on: OVCAR-5 ovarian
OVCAR-8 ovarian = tested on: OVCAR-8 ovarian
PC-3 prostate = tested on: PC-3 prostate
RPMI-8226 leukemia = tested on: RPMI-8226 leukemia
RXF 393 renal = tested on: RXF 393 renal
SF-268 CNS = tested on: SF-268 CNS
SF-295 CNS = tested on: SF-295 CNS
SF-539 CNS = tested on: SF-539 CNS
SK-MEL-2 melanoma = tested on: SK-MEL-2 melanoma
SK-MEL-28 melanoma = tested on: SK-MEL-28 melanoma
SK-MEL-5 melanoma = tested on: SK-MEL-5 melanoma
SK-OV-3 ovarian = tested on: SK-OV-3 ovarian
SN12C renal = tested on: SN12C renal
SNB-19 CNS = tested on: SNB-19 CNS
SNB-75 CNS = tested on: SNB-75 CNS
SR leukemia = tested on: SR leukemia
SW-620 colon = tested on: SW-620 colon
T-47D breast = tested on: T-47D breast
TK-10 renal = tested on: TK-10 renal
U251 CNS = tested on: U251 CNS
UACC-257 melanoma = tested on: UACC-257 melanoma
UACC-62 melanoma = tested on: UACC-62 melanoma
UO-31 renal = tested on: UO-31 renal

Q: What does the source list for `O=C(NCCCNc1cc(-c2cn(-c3ccccc3)nc2-c2cccc(O)c2)ccn1)Nc1ccc(F)cc1`?
A: GI50 (786-0 renal): 0.855 µM; TGI (786-0 renal): 3.61 µM; GI50 (A498 renal): 1.21 µM; TGI (A498 renal): 4.96 µM; GI50 (A549 NSCLC): 3.12 µM; TGI (A549 NSCLC): 21.7 µM; GI50 (ACHN renal): 3.16 µM; TGI (ACHN renal): 14.2 µM; GI50 (BT-549 breast): 2.18 µM; TGI (BT-549 breast): 11.6 µM; GI50 (CAKI-1 renal): 2.04 µM; TGI (CAKI-1 renal): 10.7 µM; GI50 (CCRF-CEM leukemia): 1.42 µM; TGI (CCRF-CEM leukemia): 25 µM; GI50 (COLO 205 colon): 2.34 µM; TGI (COLO 205 colon): 6.28 µM; GI50 (DU-145 prostate): 4.22 µM; TGI (DU-145 prostate): 19.3 µM; GI50 (EKVX NSCLC): 2.74 µM; TGI (EKVX NSCLC): 9.51 µM; GI50 (HCC-2998 colon): 1.09 µM; TGI (HCC-2998 colon): 4.05 µM; GI50 (HCT-116 colon): 1.62 µM; TGI (HCT-116 colon): 5.82 µM; GI50 (HCT-15 colon): 0.936 µM; TGI (HCT-15 colon): 4.04 µM; GI50 (HL-60(TB) leukemia): 2.15 µM; TGI (HL-60(TB) leukemia): 14.2 µM; GI50 (HOP-62 NSCLC): 3.24 µM; TGI (HOP-62 NSCLC): 9.26 µM; GI50 (HOP-92 NSCLC): 0.86 µM; TGI (HOP-92 NSCLC): 4.97 µM; GI50 (HS 578T breast): 0.984 µM; TGI (HS 578T breast): 5.31 µM; GI50 (HT29 colon): 1.09 µM; TGI (HT29 colon): 4.99 µM; GI50 (IGROV1 ovarian): 1.23 µM; TGI (IGROV1 ovarian): 5.82 µM; GI50 (K-562 leukemia): 0.812 µM; TGI (K-562 leukemia): 25 µM; GI50 (KM12 colon): 2.61 µM; TGI (KM12 colon): 5.79 µM; GI50 (M14 melanoma): 1.57 µM; TGI (M14 melanoma): 5.85 µM; GI50 (MALME-3M melanoma): 0.826 µM; TGI (MALME-3M melanoma): 3.42 µM; GI50 (MCF7 breast): 2.32 µM; TGI (MCF7 breast): 6.04 µM; GI50 (MDA-MB-231 breast): 2.18 µM; TGI (MDA-MB-231 breast): 7.78 µM; GI50 (MDA-MB-435): 1.66 µM; TGI (MDA-MB-435): 5.05 µM; GI50 (MOLT-4 leukemia): 1.25 µM; TGI (MOLT-4 leukemia): 15.6 µM; GI50 (NCI-H226 lung): 3.39 µM; TGI (NCI-H226 lung): 8.91 µM; GI50 (NCI-H23 lung): 3.11 µM; TGI (NCI-H23 lung): 7.65 µM; GI50 (NCI-H460 lung): 2.35 µM; TGI (NCI-H460 lung): 5.88 µM; GI50 (NCI-H522 lung): 4.03 µM; TGI (NCI-H522 lung): 9.49 µM; GI50 (NCI/ADR-RES ovarian): 3.51 µM; TGI (NCI/ADR-RES ovarian): 12.5 µM; GI50 (OVCAR-4 ovarian): 1.46 µM; TGI (OVCAR-4 ovarian): 8.21 µM; GI50 (OVCAR-5 ovarian): 3.37 µM; TGI (OVCAR-5 ovarian): 9.12 µM; GI50 (OVCAR-8 ovarian): 2.13 µM; TGI (OVCAR-8 ovarian): 9.26 µM; GI50 (PC-3 prostate): 1.33 µM; TGI (PC-3 prostate): 8.92 µM; GI50 (RPMI-8226 leukemia): 0.865 µM; TGI (RPMI-8226 leukemia): 5.47 µM; GI50 (RXF 393 renal): 0.966 µM; TGI (RXF 393 renal): 4.85 µM; GI50 (SF-268 CNS): 2.61 µM; TGI (SF-268 CNS): 11.2 µM; GI50 (SF-295 CNS): 1.38 µM; TGI (SF-295 CNS): 4.84 µM; GI50 (SF-539 CNS): 1.98 µM; TGI (SF-539 CNS): 5.38 µM; GI50 (SK-MEL-2 melanoma): 4 µM; TGI (SK-MEL-2 melanoma): 10.1 µM; GI50 (SK-MEL-28 melanoma): 2.54 µM; TGI (SK-MEL-28 melanoma): 5.64 µM; GI50 (SK-MEL-5 melanoma): 1.64 µM; TGI (SK-MEL-5 melanoma): 4.83 µM; GI50 (SK-OV-3 ovarian): 3.12 µM; TGI (SK-OV-3 ovarian): 10.8 µM; GI50 (SN12C renal): 2.79 µM; TGI (SN12C renal): 8.37 µM; GI50 (SNB-19 CNS): 3.29 µM; TGI (SNB-19 CNS): 9.75 µM; GI50 (SNB-75 CNS): 0.543 µM; TGI (SNB-75 CNS): 3.18 µM; GI50 (SR leukemia): 1.51 µM; TGI (SR leukemia): 13.8 µM; GI50 (SW-620 colon): 3.04 µM; TGI (SW-620 colon): 6.73 µM; GI50 (T-47D breast): 1.89 µM; TGI (T-47D breast): 11 µM; GI50 (TK-10 renal): 6.78 µM; TGI (TK-10 renal): 20.3 µM; GI50 (U251 CNS): 2.05 µM; TGI (U251 CNS): 7.55 µM; GI50 (UACC-257 melanoma): 3.07 µM; TGI (UACC-257 melanoma): 7.54 µM; GI50 (UACC-62 melanoma): 3.14 µM; TGI (UACC-62 melanoma): 6.6 µM; GI50 (UO-31 renal): 1.58 µM; TGI (UO-31 renal): 9.7 µM
